Values quoted from earlier work, collected in patent US20230048954A1, “COMPOSITIONS FOR REMOVING NECROTIC OR INFECTED TISSUES FROM BODY SURFACE LESIONS” (priority 2020, published 2023).

Details: at a temperature of 25° C.

Row | Structure (SMILES) | pKa
1 | CCCS(=O)(=O)O [1-Propanesulfonic acid] | −0.86
2 | O=[N+]([O-])O [Nitric] | −1.4
